Experimental data as given in PubChem BioAssay (NCI).
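Grown in 96-well plates, cells were treated for 48 hours with each compound at five concentrations. Insufficient inhibition: endpoint recorded as highest concentration tested. Here, GI50 denotes the concentration required for 50% inhibition of growth. TGI: total growth inhibition.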

Experiments:
Experiment in all cases: growth of human tumour cells (NCI), 48 h
NCI-H226 lung = test system: NCI-H226 lung
NCI-H460 lung = test system: NCI-H460 lung
SNB-75 CNS = test system: SNB-75 CNS
PC-3 prostate = test system: PC-3 prostate
OVCAR-3 ovarian = test system: OVCAR-3 ovarian
HT29 colon = test system: HT29 colon
UO-31 renal = test system: UO-31 renal
OVCAR-5 ovarian = test system: OVCAR-5 ovarian
LOX IMVI melanoma = test system: LOX IMVI melanoma
A549 NSCLC = test system: A549 NSCLC
SR leukemia = test system: SR leukemia
SK-MEL-2 melanoma = test system: SK-MEL-2 melanoma
HCT-15 colon = test system: HCT-15 colon
HOP-62 NSCLC = test system: HOP-62 NSCLC
CCRF-CEM leukemia = test system: CCRF-CEM leukemia
RPMI-8226 leukemia = test system: RPMI-8226 leukemia
IGROV1 ovarian = test system: IGROV1 ovarian
RXF 393 renal = test system: RXF 393 renal
MDA-MB-435 = test system: MDA-MB-435
HOP-92 NSCLC = test system: HOP-92 NSCLC
UACC-257 melanoma = test system: UACC-257 melanoma
U251 CNS = test system: U251 CNS
SN12C renal = test system: SN12C renal
OVCAR-4 ovarian = test system: OVCAR-4 ovarian
CAKI-1 renal = test system: CAKI-1 renal
SF-539 CNS = test system: SF-539 CNS
KM12 colon = test system: KM12 colon
SK-MEL-5 melanoma = test system: SK-MEL-5 melanoma
SW-620 colon = test system: SW-620 colon
A498 renal = test system: A498 renal
TK-10 renal = test system: TK-10 renal
MALME-3M melanoma = test system: MALME-3M melanoma
SK-MEL-28 melanoma = test system: SK-MEL-28 melanoma
COLO 205 colon = test system: COLO 205 colon
HL-60(TB) leukemia = test system: HL-60(TB) leukemia
EKVX NSCLC = test system: EKVX NSCLC
K-562 leukemia = test system: K-562 leukemia
MOLT-4 leukemia = test system: MOLT-4 leukemia
ACHN renal = test system: ACHN renal
BT-549 breast = test system: BT-549 breast
NCI/ADR-RES ovarian = test system: NCI/ADR-RES ovarian
DU-145 prostate = test system: DU-145 prostate
SNB-19 CNS = test system: SNB-19 CNS
786-0 renal = test system: 786-0 renal
UACC-62 melanoma = test system: UACC-62 melanoma
SF-295 CNS = test system: SF-295 CNS
NCI-H522 lung = test system: NCI-H522 lung
MCF7 breast = test system: MCF7 breast
HCC-2998 colon = test system: HCC-2998 colon
MDA-MB-231 breast = test system: MDA-MB-231 breast
OVCAR-8 ovarian = test system: OVCAR-8 ovarian
SK-OV-3 ovarian = test system: SK-OV-3 ovarian
HCT-116 colon = test system: HCT-116 colon
M14 melanoma = test system: M14 melanoma
T-47D breast = test system: T-47D breast
SF-268 CNS = test system: SF-268 CNS
HS 578T breast = test system: HS 578T breast
NCI-H23 lung = test system: NCI-H23 lung

`CCn1c(-c2nonc2N)nc2c(C#CC(C)(C)O)ncc(OC3CCNCC3)c21` gave a GI50 (NCI-H226 lung) of 23.3 µM, a TGI (NCI-H226 lung) of over 25 µM and a GI50 (NCI-H460 lung) of 6.86 µM. It also gave a TGI (NCI-H460 lung) of over 25 µM, a GI50 (SNB-75 CNS) of 1.42 µM and a TGI (SNB-75 CNS) of over 25 µM. It also gave a GI50 (PC-3 prostate) of 7.58 µM, a TGI (PC-3 prostate) of over 25 µM and a GI50 (OVCAR-3 ovarian) of 5.38 µM. It also gave a TGI (OVCAR-3 ovarian) of 17.3 µM, a GI50 (HT29 colon) of 8.93 µM and a TGI (HT29 colon) of over 25 µM. The GI50 (UO-31 renal) was over 25 µM, the TGI (UO-31 renal) was over 25 µM and the GI50 (OVCAR-5 ovarian) was over 25 µM. It also gave a TGI (OVCAR-5 ovarian) of over 25 µM, a GI50 (LOX IMVI melanoma) of 8.5 µM and a TGI (LOX IMVI melanoma) of over 25 µM. For the same molecule, the GI50 (A549 NSCLC) was over 25 µM, the TGI (A549 NSCLC) was over 25 µM and the GI50 (SR leukemia) was 9.64 µM. It also gave a TGI (SR leukemia) of over 21.3 µM, a GI50 (SK-MEL-2 melanoma) of 8.01 µM and a TGI (SK-MEL-2 melanoma) of 19.4 µM. The GI50 (HCT-15 colon) was over 25 µM, the TGI (HCT-15 colon) was over 25 µM and the GI50 (HOP-62 NSCLC) was over 16.4 µM. The TGI (HOP-62 NSCLC) was over 25 µM, the GI50 (CCRF-CEM leukemia) was 5.18 µM and the TGI (CCRF-CEM leukemia) was over 25 µM. The GI50 (RPMI-8226 leukemia) was over 25 µM, the TGI (RPMI-8226 leukemia) was over 25 µM and the GI50 (IGROV1 ovarian) was 0.696 µM. It also gave a TGI (IGROV1 ovarian) of over 25 µM, a GI50 (RXF 393 renal) of 2.84 µM and a TGI (RXF 393 renal) of 13.3 µM. It also gave a GI50 (MDA-MB-435) of 13.6 µM, a TGI (MDA-MB-435) of over 25 µM and a GI50 (HOP-92 NSCLC) of over 25 µM. For the same molecule, the TGI (HOP-92 NSCLC) was over 25 µM, the GI50 (UACC-257 melanoma) was over 25 µM and the TGI (UACC-257 melanoma) was over 25 µM. It also gave a GI50 (U251 CNS) of 3.74 µM, a TGI (U251 CNS) of over 25 µM and a GI50 (SN12C renal) of 9.21 µM. For the same molecule, the TGI (SN12C renal) was over 25 µM, the GI50 (OVCAR-4 ovarian) was 14.1 µM and the TGI (OVCAR-4 ovarian) was over 25 µM. For the same molecule, the GI50 (CAKI-1 renal) was over 25 µM, the TGI (CAKI-1 renal) was over 25 µM and the GI50 (SF-539 CNS) was 2.95 µM. For the same molecule, the TGI (SF-539 CNS) was over 25 µM, the GI50 (KM12 colon) was 4.52 µM and the TGI (KM12 colon) was over 25 µM. The GI50 (SK-MEL-5 melanoma) was over 20.1 µM, the TGI (SK-MEL-5 melanoma) was over 25 µM and the GI50 (SW-620 colon) was 10.3 µM. The TGI (SW-620 colon) was over 25 µM, the GI50 (A498 renal) was 0.0958 µM and the TGI (A498 renal) was 13.4 µM. It also gave a GI50 (TK-10 renal) of 6.6 µM, a TGI (TK-10 renal) of over 25 µM and a GI50 (MALME-3M melanoma) of over 25 µM. The TGI (MALME-3M melanoma) was over 25 µM, the GI50 (SK-MEL-28 melanoma) was 14.9 µM and the TGI (SK-MEL-28 melanoma) was over 25 µM. The GI50 (COLO 205 colon) was 4.89 µM, the TGI (COLO 205 colon) was over 21.9 µM and the GI50 (HL-60(TB) leukemia) was 8.38 µM. The TGI (HL-60(TB) leukemia) was 19 µM, the GI50 (EKVX NSCLC) was over 25 µM and the TGI (EKVX NSCLC) was over 25 µM. For the same molecule, the GI50 (K-562 leukemia) was 11.1 µM, the TGI (K-562 leukemia) was over 25 µM and the GI50 (MOLT-4 leukemia) was 6.32 µM. For the same molecule, the TGI (MOLT-4 leukemia) was over 25 µM, the GI50 (ACHN renal) was over 25 µM and the TGI (ACHN renal) was over 25 µM. It also gave a GI50 (BT-549 breast) of 8.78 µM, a TGI (BT-549 breast) of over 25 µM and a GI50 (NCI/ADR-RES ovarian) of over 25 µM. It also gave a TGI (NCI/ADR-RES ovarian) of over 25 µM, a GI50 (DU-145 prostate) of 10.4 µM and a TGI (DU-145 prostate) of over 25 µM. The GI50 (SNB-19 CNS) was 7.83 µM, the TGI (SNB-19 CNS) was over 25 µM and the GI50 (786-0 renal) was 6.79 µM. For the same molecule, the TGI (786-0 renal) was over 25 µM, the GI50 (UACC-62 melanoma) was 15.8 µM and the TGI (UACC-62 melanoma) was over 25 µM. The GI50 (SF-295 CNS) was 9.09 µM, the TGI (SF-295 CNS) was over 25 µM and the GI50 (NCI-H522 lung) was 4.42 µM. It also gave a TGI (NCI-H522 lung) of 8.82 µM, a GI50 (MCF7 breast) of 3.93 µM and a TGI (MCF7 breast) of over 22.5 µM. The GI50 (HCC-2998 colon) was 7.08 µM, the TGI (HCC-2998 colon) was over 25 µM and the GI50 (MDA-MB-231 breast) was 20 µM. For the same molecule, the TGI (MDA-MB-231 breast) was over 25 µM, the GI50 (OVCAR-8 ovarian) was 12.9 µM and the TGI (OVCAR-8 ovarian) was over 25 µM. For the same molecule, the GI50 (SK-OV-3 ovarian) was 3.86 µM, the TGI (SK-OV-3 ovarian) was over 25 µM and the GI50 (HCT-116 colon) was 8.15 µM. The TGI (HCT-116 colon) was over 25 µM, the GI50 (M14 melanoma) was 21.6 µM and the TGI (M14 melanoma) was over 25 µM. The GI50 (T-47D breast) was 1.21 µM, the TGI (T-47D breast) was over 25 µM and the GI50 (SF-268 CNS) was 16.6 µM. The TGI (SF-268 CNS) was over 25 µM, the GI50 (HS 578T breast) was 2.11 µM and the TGI (HS 578T breast) was over 25 µM. The GI50 (NCI-H23 lung) was over 23.7 µM and the TGI (NCI-H23 lung) was over 25 µM.
